# Experimental data as given in publication PMC6544242, “Development and validation of a multiplex UHPLC-MS/MS method for the determination of the investigational antibiotic against multi-resistant tuberculosis macozinone (PBTZ169) and five active metabolites in human plasma” (PLoS ONE, 2019).
# Read-outs that look alike come from different tables or passages of the source.
# Columns and labels:
# [1] = Phase Ia clinical pharmacokinetic trial, plasma levels in healthy volunteers; conditions: human
# Protocol: The phase 1a clinical study assessing the safety and pharmacokinetics of PBTZ169 in healthy volunteers (NCT03423030), was performed at the Service of Clinical Pharmacology of the Lausanne University Hospital and was approved on 06.09.2017 (2017–01241) by the Ethics Committee of the Canton of Vaud (CER-VD) and on 17.11.2017 (2017DR1171) by Swissmedic. All volunteers gave their written informed consent.
# The concentration measured in this plasma sample is 464 ng/mL, 147 ng/mL, 13 ng/mL, 12 ng/mL and 2 ng/mL for PBTZ169, Met 3-OH, Met 3-oxo, Met amino and Met 1-OH, respectively. […] Of note, measured plasma levels were multiplied by the factor 1.1 accounting for the blood 10:1 dilution due to citrate solution.
# [2] = processed extract sample, 24h
# [3] = human
# [4] = human, 6 h
# [5] = test system: Mycobacterium tuberculosis; conditions: not measured in this paper; cited from earlier work
SMILES,"% from t0 ([2]; 4°C, level H (QC 1500 ng/mL)) [%]","% from t0 ([2]; 4°C, level L (QC 2 ng/mL)) [%]","% from t0 ([2]; 4°C, level M (QC 150 ng/mL)) [%]","% from t0 ([2]; RT, level H (QC 1500 ng/mL)) [%]","% from t0 ([2]; RT, level L (QC 2 ng/mL)) [%]","% from t0 ([2]; RT, level M (QC 150 ng/mL)) [%]","% from t0 ([3]; 1 h, 10 ng/mL) [%]","% from t0 ([3]; 1 h, 20 ng/mL) [%]","% from t0 ([3]; 1 h, 50 ng/mL) [%]","% from t0 ([3]; 1 h, 100 ng/mL) [%]","% from t0 ([3]; 1 h, 200 ng/mL) [%]","% from t0 ([3]; 1 h, 500 ng/mL) [%]","% from t0 ([3]; 2 h, 10 ng/mL) [%]","% from t0 ([3]; 2 h, 20 ng/mL) [%]","% from t0 ([3]; 2 h, 50 ng/mL) [%]","% from t0 ([3]; 2 h, 100 ng/mL) [%]","% from t0 ([3]; 2 h, 200 ng/mL) [%]","% from t0 ([3]; 2 h, 500 ng/mL) [%]","% from t0 ([3]; 4 h, 10 ng/mL) [%]","% from t0 ([3]; 4 h, 20 ng/mL) [%]",further results
O=c1nc(N2CCN(CC3(O)CCCCC3)CC2)sc2c([N+](=O)[O-])cc(C(F)(F)F)cc12 [Met 1-OH],-2,-12,-9,-12,-55,-33,4,3,-1,2,-1,-4,1,-2,-4,0,-3,-6,-1,0,"plasma levels in volunteers ([1]; in vivo): below 0.5 ng/mL; % from t0 ([3]; 4 h, 50 ng/mL): -9%; % from t0 ([3]; 4 h, 100 ng/mL): -2%; % from t0 ([3]; 4 h, 200 ng/mL): -4%; % from t0 ([3]; 4 h, 500 ng/mL): -11%; % from freshly processed samples (n=2) ([4]; 0.5 ng/mL): -15%; % from freshly processed samples (n=2) ([4]; 1 ng/mL): -9%; % from freshly prepared samples ([4]; 2 ng/mL): -4%; % from freshly processed samples (n=2) ([4]; 2 ng/mL): -4%; % from freshly processed samples (n=2) ([4]; 50 ng/mL): -1%; % from freshly prepared samples ([4]; 150 ng/mL): -3%; % from freshly processed samples (n=2) ([4]; 500 ng/mL): -1%; % from freshly processed samples (n=2) ([4]; 1000 ng/mL): 0%; % from freshly prepared samples ([4]; 1500 ng/mL): -2%; % from freshly processed samples (n=2) ([4]; 2000 ng/mL): -1%; anti-TB activity in vitro (active / inactive) [5]: active"
O=c1nc(N2CCN(CC3CCCCC3O)CC2)sc2c([N+](=O)[O-])cc(C(F)(F)F)cc12 (stereo not shown) [Met 2-OH],-4,-16,-10,-18,-61,-39,1,1,-10,2,-2,-9,-1,-1,-17,-2,-5,-15,-3,-2,"detection in vivo in plasma [1]: not detected; % from t0 ([3]; 4 h, 50 ng/mL): -30%; % from t0 ([3]; 4 h, 100 ng/mL): -3%; % from t0 ([3]; 4 h, 200 ng/mL): -6%; % from t0 ([3]; 4 h, 500 ng/mL): -26%; % from freshly processed samples (n=2) ([4]; 0.5 ng/mL): -16%; % from freshly processed samples (n=2) ([4]; 1 ng/mL): -6%; % from freshly prepared samples ([4]; 2 ng/mL): -8%; % from freshly processed samples (n=2) ([4]; 2 ng/mL): -6%; % from freshly processed samples (n=2) ([4]; 50 ng/mL): -4%; % from freshly prepared samples ([4]; 150 ng/mL): -4%; % from freshly processed samples (n=2) ([4]; 500 ng/mL): -3%; % from freshly processed samples (n=2) ([4]; 1000 ng/mL): 0%; % from freshly prepared samples ([4]; 1500 ng/mL): -4%; % from freshly processed samples (n=2) ([4]; 2000 ng/mL): -2%; anti-TB activity in vitro (active / inactive) [5]: active"
O=c1nc(N2CCN(CC3CCCC(O)C3)CC2)sc2c([N+](=O)[O-])cc(C(F)(F)F)cc12 (stereo not shown) [Met 3-OH],-2,-14,-9,-14,-59,-36,6,8,12,5,5,8,7,7,12,4,1,9,4,12,"% from t0 ([3]; 4 h, 50 ng/mL): 15%; % from t0 ([3]; 4 h, 100 ng/mL): 4%; % from t0 ([3]; 4 h, 200 ng/mL): 6%; % from t0 ([3]; 4 h, 500 ng/mL): 1%; % from freshly processed samples (n=2) ([4]; 0.2 ng/mL): 3%; % from freshly processed samples (n=2) ([4]; 0.5 ng/mL): -14%; % from freshly processed samples (n=2) ([4]; 1 ng/mL): -13%; % from freshly prepared samples ([4]; 2 ng/mL): -7%; % from freshly processed samples (n=2) ([4]; 2 ng/mL): -10%; % from freshly processed samples (n=2) ([4]; 50 ng/mL): -8%; % from freshly prepared samples ([4]; 150 ng/mL): -5%; % from freshly processed samples (n=2) ([4]; 500 ng/mL): -6%; % from freshly processed samples (n=2) ([4]; 1000 ng/mL): -1%; % from freshly prepared samples ([4]; 1500 ng/mL): -4%; % from freshly processed samples (n=2) ([4]; 2000 ng/mL): -2%; anti-TB activity in vitro (active / inactive) [5]: active"
O=C1CCCC(CN2CCN(c3nc(=O)c4cc(C(F)(F)F)cc([N+](=O)[O-])c4s3)CC2)C1 (stereo not shown) [Met 3-oxo],-2,-14,-9,-10,-58,-37,-1,-6,-22,0,-9,-22,-5,-9,-32,-5,-11,-31,-9,-15,"concentration deviation in whole blood ([3]; 4 h): exceeded the accepted -15% limit; % from t0 ([3]; 4 h, 50 ng/mL): -51%; % from t0 ([3]; 4 h, 100 ng/mL): -10%; % from t0 ([3]; 4 h, 200 ng/mL): -18%; % from t0 ([3]; 4 h, 500 ng/mL): -50%; % from freshly processed samples (n=2) ([4]; 0.2 ng/mL): 6%; % from freshly processed samples (n=2) ([4]; 0.5 ng/mL): -14%; % from freshly processed samples (n=2) ([4]; 1 ng/mL): -2%; % from freshly prepared samples ([4]; 2 ng/mL): -4%; % from freshly processed samples (n=2) ([4]; 2 ng/mL): -10%; % from freshly processed samples (n=2) ([4]; 50 ng/mL): -6%; % from freshly prepared samples ([4]; 150 ng/mL): -4%; % from freshly processed samples (n=2) ([4]; 500 ng/mL): -4%; % from freshly processed samples (n=2) ([4]; 1000 ng/mL): 0%; % from freshly prepared samples ([4]; 1500 ng/mL): -4%; % from freshly processed samples (n=2) ([4]; 2000 ng/mL): -1%; anti-TB activity in vitro (active / inactive) [5]: active"
